Assay results taken from patent US20140030234A1, “METHODS AND COMPOSITIONS FOR MODULATING ISLET BETA CELL DEVELOPMENT” (The Board of Trustees of the Leland Stanford Junior …, priority 2012, published 2014).

Assays:
cultured P10 islets = assay: qRT-PCR of mRNA in cultured P10 mouse islets exposed to glucokinase activator with or without FK506; type: cell-based
Description: (§1) Quantitative Real-time RT-PCR. Mouse islets were isolated by standard collagenase pancreatic perfusion as previously described (Heit et al. (2006a), supra). Total islet mRNA was then isolated using the RNeasy Microkit (QIAGEN) according to the manufacturer's instructions and RNA amount and purity were assessed by Nanodrop spectrophotometry. Any remaining contaminant DNA was removed by treating samples with 1 unit of RNAse-free DNAse (Fermentas). Next, cDNA was prepared from 750 ng of total islet RNA using the RETROscript kit (Ambion) and analyzed by quantitative real-time PCR (QPCR) using TaqMan Universal PCR Master Mix (ABI) and the ABI Prism 7500 detection system. For culture studies, islets harvested from mice of the indicated genotype were placed in standard media (RPMI 1640 with 4.5 mM glucose containing 10% FBS and 1% pen/strep) at 37° C. and 5% CO2. For some experiments islets were maintained in media containing vehicle (DMSO), glucokinase activator (GKA) R0-28-1675 (10 μM; Axon Ligands) and/or FK506 (10 μM; LC Laboratories) for 72 hours, with media changes every 24 hours. Additionally, β-cells from MIP-EGFP islets were isolated using fluorescence-activated cell sorting as previously described (Sugiyama, T., et al. (2007). Conserved markers of fetal pancreatic epithelium permit prospective isolation of islet progenitor cells by FACS. Proc. Natl. Acad. Sci. U.S.A 104, 175-180) and processed as above for analysis by QPCR. Each quantitative analysis was performed in triplicate and islets from 3 to 6 mice of each genotype were independently tested. Data are normalized to β-actin and results are expressed as the mean±S.E.M.

[1] = test system: islets isolated from WT, P20 mice; assay: qRT-PCR of mRNA in cultured neonatal mouse islets exposed to FK506; type: cell-based
Description: as §1

NFATc1 [2] = assay: Chromatin immunoprecipitation (ChIP) of NFATc1 in mouse islets; type: cell-based
Description: (§2) Islets from P20 C57/BL6 mice were isolated (as above) and fixed with 1% formaldehyde for 10 minutes at room temperature. Cross-linking was quenched by the addition of 0.125 M glycine and islets were washed in DPBS. ChIPs were then performed using the EZ-Magna ChIP™ G Chromatin Immunoprecipitation Kit (Millipore), following the manufacturer's protocol. Briefly, following cell and nuclear lysis, islets were sonicated to shear chromatin using a Bioruptor Sonicator (Diagenode) at maximum power; set for 15 seconds ON followed by 45 seconds OFF for a total time of 10 minutes. Precleared chromatin from 200-300 islets was used for each ChIP sample with incubation of 1 to 10 ug of the appropriate antibodies overnight at 4° C. Before IP, 1/10 of the extract was saved for use as the input. Antibodies used for IP were mouse monoclonal anti-RNA Polymerase (1 ug, Millipore, 05-623B), rabbit anti-IgG (1 ug, Santa Cruz, sc-2027), and rabbit anti-NFATc1 (5 ug, Imgenex, #IMG-5101A). Resulting chromatin was then amplified using the GenomePlex WGA4 Whole Genome Amplification Kit (Sigma) and quantified using nanodrop. Equal amounts of chromatin DNA were then analyzed by quantitative PCR in the ABI Prism 7500 detection system (Applied Biosystems) using Power SYBR Green PCR Master Mix (Applied Biosystems). […]

cultured human islets = cultured human islets exposed to FK506; cited from earlier work
NFATc1 [3] = assay: ChIP of NFATc1 on isolated human islets; type: cell-based; design: NFATc1 association at CCNA2, CCND2 and FOXM1 promoter sites: dose or concentration left out as unconfirmed
Description: as §2, with “Antibodies used for IP were mouse monoclonal anti-RNA Polymerase (1 ug, Millipore, 05-623B), rabbit anti-IgG (1 ug, Santa Cruz, sc-2027), and rabbit anti-NFATc1 (5 ug, Imgenex, #IMG-5101A).” left out
Human islet studies. […] Islets were immunostained for insulin and BrdU and β-cell proliferation rate was determined by quantifying the percentage of insulin+ and BrdU^+ cells. A minimum of 50 islets and over 2000 β-cells were scored per condition.

human islets = assay: qRT-PCR of mRNA in cultured human islets exposed to FK506; type: cell-based; settings: 72 hr
Description: (§3) Quantitative Real-time RT-PCR. Mouse islets were isolated by standard collagenase pancreatic perfusion as previously described (Heit et al. (2006a), supra). Total islet mRNA was then isolated using the RNeasy Microkit (QIAGEN) according to the manufacturer's instructions and RNA amount and purity were assessed by Nanodrop spectrophotometry. Any remaining contaminant DNA was removed by treating samples with 1 unit of RNAse-free DNAse (Fermentas). Next, cDNA was prepared from 750 ng of total islet RNA using the RETROscript kit (Ambion) and analyzed by quantitative real-time PCR (QPCR) using TaqMan Universal PCR Master Mix (ABI) and the ABI Prism 7500 detection system. Human islet studies. Human islet samples were obtained from healthy, non-diabetic organ donors deceased due to acute traumatic or anoxic death and offered by NDR1 (National Diseases Resource Interchange). Islets were isolated by Bottino, R. at the University of Pittsburg, or by Bryant, S, and Thompson A. at the University of Alabama, Birmingham. […] After isolation, islets were shipped directly to our laboratory and were transferred to fresh islet culture medium (RPMI 1640 with 4.5 mM glucose containing 10% FBS and 1% pen/strep). As with mouse islets, islet samples were split and treated with either vehicle (DMSO) or FK506 ([…], LC laboratories) for 72 hours, with medium changes every 24 hours. Islets were then handpicked with dithizone staining and aliquots of 1000 IEQ were spun down and snap frozen for mRNA isolation or crosslinked as described above for ChIP studies. BrdU analysis was performed on the donor batch by treating islets with 50 uM BrdU and chasing for 24 hrs. Afterwards, islets were placed in 2% agarose and processed within paraffin blocks as described above. Islets were immunostained for insulin and BrdU and β-cell proliferation rate was determined by quantifying the percentage of insulin+ and BrdU^+ cells. A minimum of 50 islets and over 2000 β-cells were scored per condition.

[4] = cited from earlier work
neonatal human islets = assay: BrdU incorporation, β-cell proliferation in human islets; type: cell-based; settings: islets of donor, FK506 vs vehicle (FIG. 6G-H)
Description: as §3, with “Human” for “Quantitative Real-time RT-PCR. Mouse islets were isolated by standard collagenase pancreatic perfusion as previously described (Heit et al. (2006a), supra). Total islet mRNA was then isolated using the RNeasy Microkit (QIAGEN) according to the manufacturer's instructions and RNA amount and purity were assessed by Nanodrop spectrophotometry. Any remaining contaminant DNA was removed by treating samples with 1 unit of RNAse-free DNAse (Fermentas). Next, cDNA was prepared from 750 ng of total islet RNA using the RETROscript kit (Ambion) and analyzed by quantitative real-time PCR (QPCR) using TaqMan Universal PCR Master Mix (ABI) and the ABI Prism 7500 detection system. Human”

[5] = WT P20 mouse islets, FK506 10 μM, 72 hr, vs vehicle (FIG. 3F)
[6] = FK506 10 μM, vs vehicle (FIG. 4A)

SMILES: C=CC[C@@H]1/C=C(\C)C[C@H](C)C[C@H](OC)[C@H]2O[C@@](O)(C(=O)C(=O)N3CCCC[C@H]3C(=O)O[C@H](/C(C)=C/[C@@H]3CC[C@@H](O)[C@H](OC)C3)[C@H](C)[C@@H](O)CC1=O)[C@H](C)C[C@@H]2OC [FK506, tacrolimus]
- GKA induction of CcnA2, CcnD2 and FoxM1 mRNAs (cultured P10 islets; P10 islets, simultaneous exposure to FK506, 10 μM each, 72 hr (FIG. 7D)): attenuated or blocked
- GKA elevation of Insulin 2 (Ins2) levels (cultured P10 islets; WT P10 islets, GKA+FK506, 10 μM each, 72 hr (FIG. 7B)): blunted
- GKA induction of NFATc1 mRNA (cultured P10 islets; WT P10 islets, simultaneous exposure to FK506 and GKA, 10 μM each, 72 hr (FIG. 7A)): blocked
- GKA increase of ChgA, ChgB, IAPP, and IA2 mRNAs (cultured P10 islets; neonatal P10 islets, GKA+FK506, 10 μM each, 72 hr (FIG. 7C)): eliminated or significantly reduced
- levels of Hnf4a mRNA [1, 5]: remained unchanged
- levels of Ins1, Ins2, ChgA, ChgB, IAPP and IA2 mRNA [1, 5]: significantly reduced
- levels of CcnA2, CcnD2 and FoxM1 mRNAs ([1]; neonatal WT mouse islets, FK506, 72 hr, vs vehicle (FIG. 5E)): significantly decreased
- NFATc1 binding at ChgA, ChgB and IA2 promoters (NFATc1 [2]; WT P20 mouse islets, FK506 24 hr (FIG. 3K)): reduced to levels comparable to IgG controls
- NFATc1 binding at CcnD2, FoxM1 and CcnA2 promoter sites (NFATc1 [2]; WT neonatal mouse islets, FK506 24 hr (FIG. 5J)): consistently reduced NFATc1 binding to background levels
- DCG numbers (cultured human islets): reduced
- insulin secretion (cultured human islets): impaired
- NFATc1 binding at CHGA, CHGB, IAPP, and IA2 sites (NFATc1 [3]; human islets, FK506 10 μM, 24 hr (FIG. 4B)): consistently reduced
- NFATc1 association at CCNA2, CCND2 and FOXM1 promoter sites (NFATc1 [3]; neonatal human islets): FK506-sensitive
- CCNA2, CCND2 and FOXM1 mRNA levels (human islets; vs vehicle (FIG. 6F)): significantly decreased
- islet levels of mRNA encoding HNF4a (human islets; [6]): unaffected
- mRNAs encoding INS, CHGA, CHGB, IAPP, and IA2 (human islets; [6]): reduction
- incidence of diabetes mellitus ([4]; patients administered calcineurin inhibitors): high incidence
- patients developing diabetes mellitus ([4]; patients requiring immunosuppression with calcineurin inhibitors): 10-30%
- reduction of β-cell BrdU incorporation (neonatal human islets): ~3 fold
